Experiments:
[1] = Stability of docetaxel forms dissolved in Tween 80; type: physicochemical; settings: 40 mg/mL (on anhydrous basis) in Tween 80, after a few days
Method: It is well known that docetaxel is formulated with Tween 80 as a solubilizer or emulsifier for the commercial product Taxotere. The different docetaxels were dissolved in Tween 80 at a concentration of 40 mg/mL (on anhydrous basis). […] Thus, the anhydrous docetaxel is preferred in the Tween formulation. In addition it may be useful to use a Tween 80 or equivalent surfactant that is anhydrous or very low in water content as the anhydrous form of docetaxel may absorb water to form the hydrated form which could result in precipitation.

[2] = Rate of dissolution of docetaxel forms in acetonitrile; type: physicochemical; settings: 5 mg/mL (anhydrous basis)
Method: To compare if the different types of docetaxel material had different solubility profiles as a result of their different structures, their solubility rates were compared in the solvent acetonitrile. Acetonitrile was added to a fixed amount of docetaxel from different suppliers to obtain a concentration of 5 mg/mL (anhydrous basis). The rate at which dissolution of the different docetaxels occurred was observed. It was observed that the anhydrous docetaxels (from 2 different suppliers) dissolved completely in less than 1 minute. […] Under these further diluted conditions, the time to dissolve was between 5 and 10 minutes for the hydrated materials. A similar observation was made when using the solvent chloroform.

Sediment or precipitate in Tween 80 solution [1] | Time to dissolve completely [2] | Dissolution (observation) [2] | Structure (SMILES)
no precipitate was observed | less than 1 minute |  | CC(=O)O[C@@]12CO[C@@H]1C[C@H](O)[C@@]1(C)C(=O)[C@H](O)C3=C(C)[C@@H](OC(=O)[C@H](O)[C@@H](NC(=O)OC(C)(C)C)c4ccccc4)C[C@@](O)([C@@H](OC(=O)c4ccccc4)[C@H]21)C3(C)C [anhydrous docetaxel, docetaxel]
 |  | did not readily dissolve | CC(=O)O[C@@]12CO[C@@H]1C[C@H](O)[C@@]1(C)C(=O)[C@H](O)C3=C(C)[C@@H](OC(=O)[C@H](O)[C@@H](NC(=O)OC(C)(C)C)c4ccccc4)C[C@@](O)([C@@H](OC(=O)c4ccccc4)[C@H]21)C3(C)C [partial hydrate, docetaxel hemihydrate]
